pEC50: −log10 of the molar value.
Biological target: T1, ABCB1 (Homo sapiens, UniProt P08183)
T1 construct: ABCB1 transporter in membrane vesicles of High Five insect cells
Assay: vanadate-sensitive ATPase stimulation in ABCB1 membrane vesicles ([…] maximum); also raised [3H]-paclitaxel accumulation in SW620/Ad300 cells
Format: biochemical

T1 sequence (P08183 whole entry): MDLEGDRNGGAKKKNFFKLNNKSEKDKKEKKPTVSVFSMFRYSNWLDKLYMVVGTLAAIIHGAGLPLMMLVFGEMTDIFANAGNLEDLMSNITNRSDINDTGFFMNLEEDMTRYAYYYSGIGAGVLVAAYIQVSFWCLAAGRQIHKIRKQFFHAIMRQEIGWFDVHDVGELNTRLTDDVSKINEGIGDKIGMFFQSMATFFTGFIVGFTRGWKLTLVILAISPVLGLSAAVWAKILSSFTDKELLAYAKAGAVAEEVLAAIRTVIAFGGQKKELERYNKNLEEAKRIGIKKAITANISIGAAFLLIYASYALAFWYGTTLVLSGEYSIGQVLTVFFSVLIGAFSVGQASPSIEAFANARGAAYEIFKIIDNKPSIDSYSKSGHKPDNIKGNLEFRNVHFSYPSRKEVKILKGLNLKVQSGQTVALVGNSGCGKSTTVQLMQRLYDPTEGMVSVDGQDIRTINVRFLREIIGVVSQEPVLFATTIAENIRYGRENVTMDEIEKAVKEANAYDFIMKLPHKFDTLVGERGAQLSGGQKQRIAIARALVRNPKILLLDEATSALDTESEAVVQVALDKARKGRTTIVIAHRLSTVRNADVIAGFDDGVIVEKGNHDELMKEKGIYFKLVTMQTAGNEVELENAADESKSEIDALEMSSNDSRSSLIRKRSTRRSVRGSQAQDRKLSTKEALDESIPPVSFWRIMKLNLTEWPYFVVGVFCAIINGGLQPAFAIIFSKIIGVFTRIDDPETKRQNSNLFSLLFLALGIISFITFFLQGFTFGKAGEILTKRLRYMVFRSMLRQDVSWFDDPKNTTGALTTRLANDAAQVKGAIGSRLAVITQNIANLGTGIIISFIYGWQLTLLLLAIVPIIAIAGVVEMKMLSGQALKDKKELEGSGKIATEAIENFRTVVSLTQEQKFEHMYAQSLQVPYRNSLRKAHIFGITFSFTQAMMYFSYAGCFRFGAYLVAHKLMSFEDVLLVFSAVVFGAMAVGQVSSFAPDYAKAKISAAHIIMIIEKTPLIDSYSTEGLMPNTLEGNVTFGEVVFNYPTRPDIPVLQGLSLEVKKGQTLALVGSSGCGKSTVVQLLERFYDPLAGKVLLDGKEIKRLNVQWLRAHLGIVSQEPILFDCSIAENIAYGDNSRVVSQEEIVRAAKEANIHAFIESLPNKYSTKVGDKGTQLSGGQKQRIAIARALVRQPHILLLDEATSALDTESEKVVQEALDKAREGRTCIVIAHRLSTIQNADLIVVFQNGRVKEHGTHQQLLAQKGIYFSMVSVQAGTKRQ

pEC50: 5.28
Structure (SMILES): CNC(=O)CN1CCC(Oc2cc3c(Nc4cccc(Cl)c4F)ncnc3cc2OC)CC1 [sapitinib]

— publication PMC7581728, “Sapitinib Reverses Anticancer Drug Resistance in Colon Cancer Cells Overexpressing the ABCB1 Transporter” (Frontiers in Oncology, 2020)
